Test results published in patent US20240139214A1, “AGENT FOR SUPPRESSING IL-31 PRODUCTION AND PHARMACEUTICAL COMPOSITION CONTAINING THE SAME” (KYUSHU UNIVERSITY, NATIONAL UNIVERSITY CORPORATION, priority 2021, published 2024).

Key:
mouse IL-31 gene = experiment: IL-31 production inhibitory action: IL-31 gene expression by real-time PCR in antigen-stimulated CD4+ T cells from Dock8−/− AND Tg mice; assay type: cell-based; conditions: for IL-31 production inhibitory action (in words, discussion of Table 1): relative to compound 1; for activity at 0.312 µM / activity at 0.625 µM / activity at 1.25 µM / activity at 2.5 µM / activity at 0.078 µM / activity at 0.156 µM: Mus musculus, CD4+ T, 24 h, read-out: qPCR results (IL-31 production (%)): based on the case using 0.1% DMSO taken as 100%
CD4+ T cells = experiment: T cell proliferation assay (PMA and ionomycin, 3H-thymidine incorporation); assay type: cell-based, mouse; conditions: Mus musculus, CD4+ T, 66 h, read-out: Cell proliferation (%): based on the case using 0.2% DMSO taken as 100%
Description: (§1) A T cell proliferation assay was performed by culturing CD4^+ T cells (5×10^4 cells) with T cell-depleted irradiated spleen cells (1×10^6 cells) in the presence of phorbol 12-myristate 13-acetate (PMA: 100 ng/ml; Sigma-Aldrich) and ionomycin (1 μg/ml; Sigma-Aldrich) for 66 hours. For the last 18 hours of culture, ^3H-thymidine (0.037 MBq) was added, and the incorporated radioactivity was measured with MicroBeta^2 (PerkinElmer, Inc., Waltham, MS).
as §1, with “hours. Test compounds were added at various final concentrations at the start of culture.” for “hours.”, “MS). […]” for “MS).”

For `CC(C)(C)c1ccc(/C=N/Nc2ccc(C(=O)O)cc2)cc1` [Compound 2, 4-(2-(4-(tert-Butyl)benzylidene)hydrazinyl)benzoic Acid], the “IL-31 production inhibitory action (in words, discussion of Table 1)” value (“IL-31 production inhibitory action” for short) (mouse IL-31 gene) was “maintained”.

`CN(C)c1ccc(/C=N/Nc2ccc(C(=O)O)cc2)cc1` [Compound 3, 4-(2-(4-(Dimethylamino)benzylidene)hydrazinyl)benzoic Acid] was tested, and the “IL-31 production inhibitory action” value (mouse IL-31 gene) was “maintained”.

Compound `CN(C)c1ccc(-c2cnc(-c3ccc(C(=O)O)cc3)o2)cc1` [Compound 19, 4-(5-(4-(Dimethylamino)phenyl)oxazol-2-yl)benzoic Acid] has an activity at 0.312 µM (mouse IL-31 gene) of 67.6%, an activity at 0.625 µM (mouse IL-31 gene) of 69.9% and an activity at 1.25 µM (mouse IL-31 gene) of 54.5%. The activity at 2.5 µM (mouse IL-31 gene) was 16.9%, the activity at 5 µM (CD4+ T cells) was 86.3% and the activity at 10 µM (CD4+ T cells) was 79.4%. The activity at 20 µM (CD4+ T cells) was 66% and the activity at 40 µM (CD4+ T cells) was 67.4%.

With `O=C(O)c1ccc(-c2cnc(-c3cc(C(F)(F)F)ccc3Cl)o2)cc1` [Compound 20, 4-(2-(2-Chloro-5-(trifluoromethyl)phenyl)oxazol-5-yl)benzoic Acid] the activity at 0.078 µM (mouse IL-31 gene) was 16.9%, the activity at 0.156 µM (mouse IL-31 gene) was 17.7% and the activity at 0.312 µM (mouse IL-31 gene) was 23.3%. The activity at 0.625 µM (mouse IL-31 gene) was 24.7%, the activity at 1.25 µM (mouse IL-31 gene) was 22.1% and the activity at 2.5 µM (mouse IL-31 gene) was 32.6%. For the same compound, the activity at 10 µM (CD4+ T cells) was 91.2%, the activity at 20 µM (CD4+ T cells) was 87.5% and the activity at 40 µM (CD4+ T cells) was 86.7%.

`O=C(O)c1ccc(-c2cc(-c3cc(C(F)(F)F)ccc3Cl)no2)cc1` [Compound 21, 4-(3-(2-Chloro-5-(trifluoromethyl)phenyl)isoxazol-5-yl)benzoic Acid] was tested, and the activity at 0.078 µM (mouse IL-31 gene) was 23.7%, the activity at 0.156 µM (mouse IL-31 gene) was 29.9% and the activity at 0.312 µM (mouse IL-31 gene) was 25.3%. The activity at 0.625 µM (mouse IL-31 gene) was 23%, the activity at 1.25 µM (mouse IL-31 gene) was 38.2% and the activity at 2.5 µM (mouse IL-31 gene) was 13.1%. It also gave an activity at 10 µM (CD4+ T cells) of 95.5%, an activity at 20 µM (CD4+ T cells) of 98.2% and an activity at 40 µM (CD4+ T cells) of 106%.

Work on `O=C(O)c1ccc(-c2cn(-c3cc(C(F)(F)F)ccc3Cl)nn2)cc1` [Compound 23, 4-(1-(2-Chloro-5-(trifluoromethyl)phenyl)-1H-1,2,3-triazol-4-yl)benzoic Acid] yielded an activity at 0.156 µM (mouse IL-31 gene) of 32.5%, an activity at 0.312 µM (mouse IL-31 gene) of 46.4% and an activity at 0.625 µM (mouse IL-31 gene) of 31.4%. It also gave an activity at 1.25 µM (mouse IL-31 gene) of 22.7%, an activity at 5 µM (CD4+ T cells) of 110% and an activity at 10 µM (CD4+ T cells) of 92.9%. The activity at 20 µM (CD4+ T cells) was 88.5% and the activity at 40 µM (CD4+ T cells) was 68.9%.

Work on `O=C(O)c1ccc(-c2cn(-c3cc(C(F)(F)F)ccc3F)nn2)cc1` [Compound 24, 4-(1-(2-Fluoro-5-(trifluoromethyl)phenyl)-1H-1,2,3-triazol-4-yl)benzoic Acid] yielded an activity at 0.156 µM (mouse IL-31 gene) of 31.2%, an activity at 0.312 µM (mouse IL-31 gene) of 18.1% and an activity at 0.625 µM (mouse IL-31 gene) of 32%. For the same compound, the activity at 1.25 µM (mouse IL-31 gene) was 31.5%, the activity at 5 µM (CD4+ T cells) was 88.1% and the activity at 10 µM (CD4+ T cells) was 81.5%. For the same compound, the activity at 20 µM (CD4+ T cells) was 71.3% and the activity at 40 µM (CD4+ T cells) was 62.9%.

`O=C(O)c1ccc(-c2nc(-c3cc(C(F)(F)F)ccc3Cl)n[nH]2)cc1` [Compound 25, 4-(3-(2-Chloro-5-(trifluoromethyl)phenyl)-1H-1,2,4-triazol-5-yl)benzoic Acid] showed an activity at 0.312 µM (mouse IL-31 gene) of 82.7%, an activity at 0.625 µM (mouse IL-31 gene) of 85.6% and an activity at 1.25 µM (mouse IL-31 gene) of 72.2%. The activity at 2.5 µM (mouse IL-31 gene) was 81.9%, the activity at 10 µM (CD4+ T cells) was 82.9% and the activity at 20 µM (CD4+ T cells) was 81.3%. It also gave an activity at 40 µM (CD4+ T cells) of 80.5%.

In the case of `CC(C)c1ccc(-c2cnc(-c3ccc(C(=O)O)cc3)[nH]2)cc1` [Compound 26, 4-(5-(4-Isopropylphenyl)-1H-imidazol-2-yl)benzoic Acid], the activity at 0.625 µM (mouse IL-31 gene) is reported as 45.1%, the activity at 1.25 µM (mouse IL-31 gene) is reported as 26.2% and the activity at 10 µM (CD4+ T cells) is reported as 77.1%. It also gave an activity at 20 µM (CD4+ T cells) of 70.6% and an activity at 40 µM (CD4+ T cells) of 64.6%.

Work on `O=C(O)c1ccc(-c2ncc(-c3cc(C(F)(F)F)ccc3Cl)[nH]2)cc1` [Compound 27, 4-(5-(2-Chloro-5-(trifluoromethyl)phenyl)-1H-imidazol-2-yl)benzoic Acid] yielded an activity at 0.078 µM (mouse IL-31 gene) of 28.6%, an activity at 0.156 µM (mouse IL-31 gene) of 35.1% and an activity at 0.312 µM (mouse IL-31 gene) of 39.6%. It also gave an activity at 0.625 µM (mouse IL-31 gene) of 43.1%, an activity at 1.25 µM (mouse IL-31 gene) of 46.8% and an activity at 5 µM (CD4+ T cells) of 86.2%. The activity at 10 µM (CD4+ T cells) was 78% and the activity at 20 µM (CD4+ T cells) was 70%.

In the case of `CC(C)c1ccc(-c2cc(-c3ccc(C(=O)O)cc3)n[nH]2)cc1` [Compound 28, 4-(5-(4-Isopropylphenyl)-1H-pyrazol-3-yl)benzoic Acid], the activity at 0.156 µM (mouse IL-31 gene) is reported as 73.2%, the activity at 0.312 µM (mouse IL-31 gene) is reported as 70.6% and the activity at 0.625 µM (mouse IL-31 gene) is reported as 42.6%. For the same compound, the activity at 1.25 µM (mouse IL-31 gene) was 28%, the activity at 10 µM (CD4+ T cells) was 99.9% and the activity at 20 µM (CD4+ T cells) was 89.5%. It also gave an activity at 40 µM (CD4+ T cells) of 69.1%.

In the case of `O=C(O)c1ccc(-c2cc(-c3cc(C(F)(F)F)ccc3Cl)[nH]n2)cc1` [Compound 29, 4-(5-(2-Chloro-5-(trifluoromethyl)phenyl)-1H-pyrazol-3-yl)benzoic Acid], the activity at 0.156 µM (mouse IL-31 gene) is reported as 59.1%, the activity at 0.312 µM (mouse IL-31 gene) is reported as 52.3% and the activity at 0.625 µM (mouse IL-31 gene) is reported as 61.9%. The activity at 1.25 µM (mouse IL-31 gene) was 40.7%, the activity at 2.5 µM (mouse IL-31 gene) was 63.6% and the activity at 10 µM (CD4+ T cells) was 88.6%. For the same compound, the activity at 20 µM (CD4+ T cells) was 77.7% and the activity at 40 µM (CD4+ T cells) was 86%.

`O=C(O)c1ccc(-n2ccc(-c3cc(C(F)(F)F)ccc3Cl)n2)cc1` [Compound 30, 4-(3-(2-Chloro-5-(trifluoromethyl)phenyl)-1H-pyrazol-1-yl)benzoic Acid] gave an activity at 0.078 µM (mouse IL-31 gene) of 41.5%, an activity at 0.156 µM (mouse IL-31 gene) of 39.9% and an activity at 0.312 µM (mouse IL-31 gene) of 29.4%. For the same compound, the activity at 0.625 µM (mouse IL-31 gene) was 23.4%, the activity at 1.25 µM (mouse IL-31 gene) was 26.1% and the activity at 2.5 µM (mouse IL-31 gene) was 30.9%. For the same compound, the activity at 10 µM (CD4+ T cells) was 98.3%, the activity at 20 µM (CD4+ T cells) was 90.3% and the activity at 40 µM (CD4+ T cells) was 76.4%.

Compound `CC(C)c1ccc(-c2nnc(-c3ccc(C(=O)O)cc3)o2)cc1` [Compound 31, 4-(5-(4-Isopropylphenyl)-1,3,4-oxadiazol-2-yl)benzoic Acid] has an activity at 0.625 µM (mouse IL-31 gene) of 53.6%, an activity at 1.25 µM (mouse IL-31 gene) of 24% and an activity at 10 µM (CD4+ T cells) of 97.5%. It also gave an activity at 20 µM (CD4+ T cells) of 79.3% and an activity at 40 µM (CD4+ T cells) of 65.6%.

Compound `O=C(O)c1ccc(-c2nnc(-c3cc(C(F)(F)F)ccc3Cl)o2)cc1` [Compound 32, 4-(5-(2-Chloro-5-(trifluoromethyl)phenyl)-1,3,4-oxadiazol-2-yl)benzoic Acid] has an activity at 0.156 µM (mouse IL-31 gene) of 35.5%, an activity at 0.312 µM (mouse IL-31 gene) of 52.1% and an activity at 0.625 µM (mouse IL-31 gene) of 39.9%. It also gave an activity at 1.25 µM (mouse IL-31 gene) of 53.5%, an activity at 10 µM (CD4+ T cells) of 115% and an activity at 20 µM (CD4+ T cells) of 92.7%. For the same compound, the activity at 40 µM (CD4+ T cells) was 91.8%.

For `O=C(O)c1ccc(-c2nc(-c3cc(C(F)(F)F)ccc3Cl)no2)cc1` [Compound 33, 4-(3-(2-Chloro-5-(trifluoromethyl)phenyl)-1,2,4-oxadiazol-5-yl)benzoic Acid], the activity at 0.078 µM (mouse IL-31 gene) was 57.7%, the activity at 0.156 µM (mouse IL-31 gene) was 48.9% and the activity at 0.312 µM (mouse IL-31 gene) was 37.9%. For the same compound, the activity at 0.625 µM (mouse IL-31 gene) was 25.1%, the activity at 1.25 µM (mouse IL-31 gene) was 28% and the activity at 2.5 µM (mouse IL-31 gene) was 29.7%. The activity at 10 µM (CD4+ T cells) was 73.5%, the activity at 20 µM (CD4+ T cells) was 66.7% and the activity at 40 µM (CD4+ T cells) was 64.3%.

For `CN(C)c1ccc(/C=N/Nc2ccc(C(=O)O)cc2)c(O)c1` [Negative control compound 2, 4-(2-(4-(Dimethylamino)-2-hydroxybenzylidene)hydrazineyl)benzoic Acid, reference compound], the “IL-31 production inhibitory action” value (mouse IL-31 gene) was “tended to notably decrease”.

With `CN(CC(O)CO)c1ccc(/C=N/Nc2ccc(C(=O)O)cc2)cc1` (stereo not shown) [Negative control compound 3, 4-(2-(4-((2,3-Dihydroxypropyl)(methyl)amino)benzylidene)hydrazineyl)benzoic Acid, reference compound] the “IL-31 production inhibitory action” value (mouse IL-31 gene) was “tended to notably decrease”.

In the case of `CC(C)c1ccc(/C=N/Nc2cccc(C(=O)O)c2)cc1` [Negative control compound 4, 3-(2-(4-Isopropylbenzylidene)hydrazineyl)benzoic Acid, reference compound], the “IL-31 production inhibitory action” value (mouse IL-31 gene) is reported as “completely lost”.

For `CC(C)c1ccc(/C=N/Nc2ccccc2C(=O)O)cc1` [Negative control compound 5, 2-(2-(4-Isopropylbenzylidene)hydrazineyl)benzoic Acid, reference compound], the “IL-31 production inhibitory action” value (mouse IL-31 gene) was “completely lost”.

With `CC(C)c1ccc(/C=N/Nc2ccccc2)cc1` [Negative control compound 6, 1-(4-Isopropylbenzylidene)-2-phenylhydrazine, reference compound] the “IL-31 production inhibitory action” value (mouse IL-31 gene) was “completely lost”.

For `O=C(O)c1ccc(N/N=C/C2CCCCC2)cc1` [Negative control compound 7, 4-(2-(Cyclohexylmethylene)hydrazinyl)benzoic Acid, reference compound], the “IL-31 production inhibitory action” value (mouse IL-31 gene) was “completely lost”.
